Assay results reported in paper PMC3663118, “Structure of the protein core of translation initiation factor 2 in apo, GTP-bound and GDP-bound forms” (Acta Crystallographica Section D: Biological Crystallography, 2013).

Assays:
[1] = molecular target: T1, IF2 (protein core, residues 1-363) (Thermus thermophilus, UniProt P48515); assay: X-ray crystal structure, […] A, crystal soaking; format: binding; settings: 5 mM GDP added to the crystallization drop; Mg2+ bound; pH 7.5 protein buffer; G-domain P-loop site
T1 construct: gene infB; proteolysed during crystallization to residues 1-363 (40 kDa; N domain, G domain, domain II, start of domain III); one molecule per asymmetric unit
T1 sequence (P48515 1-363): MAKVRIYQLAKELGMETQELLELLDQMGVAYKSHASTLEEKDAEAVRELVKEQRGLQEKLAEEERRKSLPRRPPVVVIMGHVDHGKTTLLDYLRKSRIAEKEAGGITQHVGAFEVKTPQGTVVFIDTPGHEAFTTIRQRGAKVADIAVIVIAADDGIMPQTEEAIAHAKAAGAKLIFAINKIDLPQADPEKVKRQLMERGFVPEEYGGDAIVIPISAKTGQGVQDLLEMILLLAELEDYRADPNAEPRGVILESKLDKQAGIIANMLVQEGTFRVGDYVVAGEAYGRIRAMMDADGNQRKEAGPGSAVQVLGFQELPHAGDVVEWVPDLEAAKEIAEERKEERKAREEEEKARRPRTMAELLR

[2] = molecular target: T1, IF2 (protein core, residues 1-363); assay: X-ray crystal structure, […] A, crystal soaking; format: binding; settings: 30 s soak with GTP-containing cryoprotectant; Mg2+ bound; pH 7.5 protein buffer; G-domain P-loop site; GTP occupancy 0.68

Row | SMILES | X-ray crystal structure, 2.3 A, crystal soaking [1] | X-ray crystal structure, 2.8 A, crystal soaking [2]
1 | Nc1nc2c(ncn2[C@@H]2O[C@H](COP(=O)(O)OP(=O)(O)O)[C@@H](O)[C@H]2O)c(=O)[nH]1 [GDP] | 4b3x, 4b48, 4b47 for the apo, GTP and GDP complexes, respectively | 
2 | Nc1nc2c(ncn2[C@@H]2O[C@H](COP(=O)(O)OP(=O)(O)OP(=O)(O)O)[C@@H](O)[C@H]2O)c(=O)[nH]1 [GTP] |  | 4b3x, 4b48, 4b47 for the apo, GTP and GDP complexes, respectively
